Legend:
Experiment in all cases: relative viability (nuclei count vs DMSO), 5 days (fraction); higher = more cells survive
4EGI-1 + Phenformin = compound: O=C(O)C(Cc1ccccc1[N+](=O)[O-])=NNc1nc(-c2ccc(Cl)c(Cl)c2)cs1 (mixture of isomers) [4EGI-1] + N=C(N)NC(=N)NCCc1ccccc1 [Phenformin] (partner 250 µM)
Method in brief: (§1)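 After 5 days of treatment, lung cancer cells in 1536-well plates were fixed and stained in a single step (final 0.05% Triton X-100, 1% formaldehyde, 1 ug/ml Hoechst) and their nuclei counted on 4× images. Treatment had been applied by pin tool the day after seeding as one drug alone or as a fixed anchor-drug dose with five library-drug doses (not always all listed) in √10 steps. Relative viability is the nuclei count of treated wells divided by that of vehicle wells, and values are medians of duplicate plates.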

XMD8-85 + Vorinostat = compound: CN1CCN(CC1)C2=CC(=C(C=C2)NC3=NC=C4C(=N3)N(C5=CC=CC=C5C(=O)N4C)C)OC [XMD8-85] + O=C(CCCCCCC(=O)Nc1ccccc1)NO [Vorinostat] (partner 1 µM)
Method in brief: as §1

4EGI-1 + AZD7762 = compound: O=C(O)C(Cc1ccccc1[N+](=O)[O-])=NNc1nc(-c2ccc(Cl)c(Cl)c2)cs1 (mixture of isomers) [4EGI-1] + NC(=O)Nc1cc(-c2cccc(F)c2)sc1C(=O)N[C@H]1CCCNC1 [AZD7762] (partner 0.2 µM)
Method in brief: as §1

XMD8-85 + Bortezomib = compound: CN1CCN(CC1)C2=CC(=C(C=C2)NC3=NC=C4C(=N3)N(C5=CC=CC=C5C(=O)N4C)C)OC [XMD8-85] + CC(C)C[C@H](NC(=O)[C@H](Cc1ccccc1)NC(=O)c1cnccn1)B(O)O [Bortezomib] (partner 0.002 µM)
Method in brief: as §1

Cell Line | relative viability (4EGI-1 + Phenformin; first compound 0.5 µM) | relative viability (4EGI-1 + Phenformin; first compound 1.581 µM) | relative viability (4EGI-1 + Phenformin; first compound 5 µM) | relative viability (4EGI-1 + Phenformin; first compound 15.81 µM) | relative viability (4EGI-1 + Phenformin; first compound 50 µM) | relative viability (XMD8-85 + Vorinostat; first compound 0.08 µM) | relative viability (XMD8-85 + Vorinostat; first compound 0.253 µM) | relative viability (XMD8-85 + Vorinostat; first compound 0.8 µM) | relative viability (XMD8-85 + Vorinostat; first compound 2.53 µM) | relative viability (XMD8-85 + Vorinostat; first compound 8 µM) | relative viability (4EGI-1 + AZD7762; first compound 0.5 µM) | relative viability (4EGI-1 + AZD7762; first compound 5 µM) | relative viability (4EGI-1 + AZD7762; first compound 15.81 µM) | relative viability (4EGI-1 + AZD7762; first compound 50 µM) | relative viability (XMD8-85 + Bortezomib; first compound 0.08 µM) | relative viability (XMD8-85 + Bortezomib; first compound 0.253 µM) | relative viability (XMD8-85 + Bortezomib; first compound 0.8 µM) | relative viability (XMD8-85 + Bortezomib; first compound 2.53 µM) | relative viability (XMD8-85 + Bortezomib; first compound 8 µM) | relative viability (4EGI-1 + AZD7762; first compound 1.581 µM)
EKVX | 0.223 | 0.213 | 0.234 | 0.189 | 0.215 | 0.631 | 0.8 | 0.851 | 0.91 | 0.626 | 0.812 | 0.649 | 0.546 | 0.656 | 1.08 | 1.11 | 1.09 | 1.13 | 1 | 
NCI-H1355 | 0.469 | 0.439 | 0.45 | 0.413 | 0.33 | 0.682 | 0.564 | 0.642 | 0.655 | 0.545 | 0.865 | 0.801 | 0.769 | 0.27 | 1.28 | 1.26 | 1.13 | 1.21 | 1.11 | 0.69
NCI-H1975 | 0.444 | 0.356 | 0.407 | 0.442 | 0.361 | 0.708 | 0.691 | 0.706 | 0.693 | 0.473 | 0.837 | 0.717 | 0.67 | 0.557 | 0.443 | 0.36 | 0.378 | 0.297 | 0.222 | 0.539
EPLC-272H | 0.348 |  | 0.302 | 0.273 | 0.158 | 0.414 | 0.401 | 0.335 | 0.296 | 0.243 | 0.264 | 0.239 | 0.151 | 0.0667 |  | 0.831 | 0.928 | 0.814 | 0.571 | 
NCI-H1915 | 0.367 | 0.35 | 0.374 | 0.343 | 0.233 | 0.556 | 0.546 | 0.485 | 0.5 | 0.476 | 0.775 | 0.69 | 0.726 | 0.301 | 0.67 | 0.923 | 0.942 | 0.986 | 0.945 | 0.546
LXF-289 | 0.535 | 0.514 | 0.513 | 0.485 | 0.291 | 0.749 | 0.893 | 0.781 | 0.875 | 0.795 | 1.05 | 1.06 | 1.04 | 0.545 | 0.977 | 0.999 | 0.97 | 1.04 | 0.978 | 1.1
H3255 | 0.424 | 0.347 | 0.385 | 0.308 | 0.324 | 0.875 | 0.761 | 0.867 | 0.902 | 0.536 | 1.02 | 0.981 | 0.554 | 0.53 | 0.856 | 0.787 |  | 0.741 | 0.29 | 0.793
NCI-H2087 | 0.498 | 0.468 | 0.435 | 0.394 | 0.193 | 0.668 | 0.967 | 0.806 | 0.708 | 0.456 | 1.42 | 1.34 | 1.06 | 0.391 | 0.827 | 0.869 |  | 1.11 | 0.729 | 1.48

Reference: the supplement of paper PMC10307832
